# Measured values published in patent publication US12617773B2, “Azetidin-3-ylmethanol derivatives as CCR6 receptor modulators” (Idorsia Pharmaceuticals Ltd, priority 2020, dated 2026).
# Molecular target: T1, human CCR6 (Homo sapiens, UniProt P51684)
# T1 construct: expressed in transfected cells; host or cells: HEK-293
# T1 sequence (P51684 1-374): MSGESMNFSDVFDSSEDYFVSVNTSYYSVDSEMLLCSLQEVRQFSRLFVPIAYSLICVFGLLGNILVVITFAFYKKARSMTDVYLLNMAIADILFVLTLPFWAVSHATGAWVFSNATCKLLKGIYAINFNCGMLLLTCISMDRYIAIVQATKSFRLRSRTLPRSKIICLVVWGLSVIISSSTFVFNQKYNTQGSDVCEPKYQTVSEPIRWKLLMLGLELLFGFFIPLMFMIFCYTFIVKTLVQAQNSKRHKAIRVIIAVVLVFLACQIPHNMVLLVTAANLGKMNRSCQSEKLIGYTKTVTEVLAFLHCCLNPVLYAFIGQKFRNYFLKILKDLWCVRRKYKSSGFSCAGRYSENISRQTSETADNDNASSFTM
# Assay: FLIPR assay (inhibition of CCL20-induced calcium signal)
# Type: cell-based
# Conditions: HEK-293 cells expressing human CCR6; mean values where determined several times; read-out: FLIPR IC50
# Method: FLIPR assay: The bioactivity of compounds is tested in a fluorometric imaging plate reader (FLIPR: Molecular Devices) using engineered HEK-293 cells expressing the human CCR6 (GenBank: AY242126). Frozen cells are plated on Poly-L-Lysine precoated 384-well plates 2 days prior to bioassay in DMEM medium supplemented with 10% FCS and 1% Penicillin-Streptomycin. […] This buffer, but lacking the dye, is also used for washing and compound dilution steps (assay buffer). Cells are washed free of excess dye with a wash-station (Biotek), leaving 40 microliter of assay buffer at the end. Cells were incubated for 15 minutes at room temperature in the dark, before adding compounds. Stock solutions of test compounds are made up at a concentration of 10 mM in DMSO, and serially diluted first in DMSO and then transferred in assay buffer to concentrations required for inhibition dose response curves. After a 45-minute incubation period in assay buffer at room temperature, 10 microliters of each compound dilution are transferred from a compound plate to the plate containing the recombinant cells in the FLIPR instrument according to the manufacturer's instructions. After cells and compounds were preincubated for 30 minutes at room temperature in the dark, 10 microliter agonist CCL20 (Peprotech) at a final concentration of 10 nM is added, again using the FLIPR instrument. Changes in fluorescence are monitored before and after addition of the test compounds and agonist. Emission peak values above base level after CCL20 addition are exported after base line subtraction.
# The calculated IC50 values may fluctuate depending on the daily assay performance. Fluctuations of this kind are known to those skilled in the art.
row,SMILES,IC50
1,"CC(C)(C)N1CC(C)([C@](O)(c2ccc(OC(F)(F)F)cc2)c2cncc(N3CCCC3)c2)C1 [Example 12, (R)-(1-tert-Butyl-3-methyl-azetidin-3-yl)-(5-pyrrolidin-1-yl-pyridin-3-yl)-(4-trifluoromethoxy-phenyl)-methanol]",73.5 nM
2,"COCC#Cc1cncc(C(O)(c2ccc(C(C)C)cc2)C2(C)CN(C)C2)c1 (centres unmarked) [Example 13, (1,3-Dimethyl-azetidin-3-yl)-(4-isopropyl-phenyl)-[5-(3-methoxy-prop-1-ynyl)-pyridin-3-yl]-methanol]",43.5 nM
3,"CC(C)c1ccc([C@](O)(c2cncc(CC#CO)c2)C2(C)CN(C)C2)cc1 [Example 14, 3-{5-[(R)-(1,3-Dimethyl-azetidin-3-yl)-hydroxy-(4-isopropyl-phenyl)-methyl]-pyridin-3-yl}-prop-1-yn-1-ol]",70.6 nM
4,"CC(C)c1ccc([C@](O)(c2cncc(C#CC(C)(C)O)c2)C2(C)CN(C)C2)cc1 [Example 15, 4-{5-[(R)-(1,3-Dimethyl-azetidin-3-yl)-hydroxy-(4-isopropyl-phenyl)-methyl]-pyridin-3-yl}-2-methyl-but-3-yn-2-ol]",80.8 nM
5,CC(C)c1ccc([C@](O)(c2cncc(C#C[C@@H](C)O)c2)C2(C)CN(C)C2)cc1 [Example 16],52 nM
6,CC(C)c1ccc([C@](O)(c2cncc(C#C[C@H](C)O)c2)C2(C)CN(C)C2)cc1 [Example 17],53.5 nM
7,CC(C)c1ccc([C@](O)(c2cncc(C#CC3(O)CCCC3)c2)C2(C)CN(C)C2)cc1 [Example 18],33.5 nM
8,CC(C)c1ccc([C@](O)(c2cncc(C#CC3(O)CC3)c2)C2(C)CN(C)C2)cc1 [Example 19],44.9 nM
9,CC(C)c1ccc([C@](O)(c2cncc(C#CC3(O)CN(C(=O)OC(C)(C)C)C3)c2)C2(C)CN(C)C2)cc1 [Example 20],23 nM
10,CC(C)c1ccc([C@](O)(c2cncc(C#CC3(O)CCC3)c2)C2(C)CN(C)C2)cc1 [Example 21],47.9 nM
11,CC(C)c1ccc([C@](O)(c2cncc(C#CCCO)c2)C2(C)CN(C)C2)cc1 [Example 22],126 nM
12,CC(C)c1ccc([C@](O)(c2cncc(C#Cc3cnn(C)c3)c2)C2(C)CN(C)C2)cc1 [Example 23],46.8 nM
13,CC(C)c1ccc([C@](O)(c2cncc(C#CC(O)c3ccccc3)c2)C2(C)CN(C)C2)cc1 (some centres unmarked) [Example 24],6.44 nM
14,CC(C)c1ccc([C@](O)(c2cncc(C#CC(C)(O)c3ccccc3)c2)C2(C)CN(C)C2)cc1 (some centres unmarked) [Example 25],7.69 nM
15,CC(C)c1ccc([C@](O)(c2cncc(C#CC(O)C(C)C)c2)C2(C)CN(C)C2)cc1 (some centres unmarked) [Example 26],13 nM
16,CC(C)c1ccc([C@](O)(c2cncc(C#CC3(O)CCOCC3)c2)C2(C)CN(C)C2)cc1 [Example 27],43.7 nM
17,CC(C)c1ccc([C@](O)(c2cncc(C#CC(O)C3CCOCC3)c2)C2(C)CN(C)C2)cc1 (some centres unmarked) [Example 28],44.6 nM
18,Cc1nn(C)cc1C(O)C#Cc1cncc([C@@](O)(c2ccc(C(C)C)cc2)C2(C)CN(C)C2)c1 (some centres unmarked) [Example 29],85.5 nM
19,CC(C)c1ccc([C@](O)(c2cncc(C#CC3CCOCC3)c2)C2(C)CN(C)C2)cc1 [Example 30],33.9 nM

row,SMILES,IC50
1,Cc1nc(C(O)C#Cc2cncc([C@@](O)(c3ccc(C(C)C)cc3)C3(C)CN(C)C3)c2)cs1 (some centres unmarked) [Example 31],81.2 nM
2,CC(C)c1ccc([C@](O)(c2cncc(C#CC(C)(O)c3cccc(F)c3)c2)C2(C)CN(C)C2)cc1 (some centres unmarked) [Example 32],18.7 nM
3,COc1ccc(C(C)(O)C#Cc2cncc([C@@](O)(c3ccc(C(C)C)cc3)C3(C)CN(C)C3)c2)cc1 (some centres unmarked) [Example 33],20.8 nM
4,COc1ccccc1C(C)(O)C#Cc1cncc([C@@](O)(c2ccc(C(C)C)cc2)C2(C)CN(C)C2)c1 (some centres unmarked) [Example 34],21.1 nM
5,CC(C)c1ccc([C@](O)(c2cncc(C#CC(C)(O)c3ccn(C)n3)c2)C2(C)CN(C)C2)cc1 (some centres unmarked) [Example 35],141 nM
6,Cc1nc(C(C)(O)C#Cc2cncc([C@@](O)(c3ccc(C(C)C)cc3)C3(C)CN(C)C3)c2)cs1 (some centres unmarked) [Example 36],61.7 nM
7,COc1cccc(C(C)(O)C#Cc2cncc([C@@](O)(c3ccc(C(C)C)cc3)C3(C)CN(C)C3)c2)n1 (some centres unmarked) [Example 37],20.7 nM
8,CC(C)c1ccc([C@](O)(c2cncc(C#CC(C)(O)c3ncccn3)c2)C2(C)CN(C)C2)cc1 (some centres unmarked) [Example 38],130 nM
9,Cc1cc(C(C)(O)C#Cc2cncc([C@@](O)(c3ccc(C(C)C)cc3)C3(C)CN(C)C3)c2)nn1C (some centres unmarked) [Example 39],76.5 nM
10,Cc1cc(C(C)(O)C#Cc2cncc(C(O)(c3ccc(C(C)C)cc3)C3(C)CN(C)C3)c2)ncn1 (centres unmarked) [Example 40],92.5 nM
11,Cc1cc(C(O)C#Cc2cncc([C@@](O)(c3ccc(C(C)C)cc3)C3(C)CN(C)C3)c2)nn1C (some centres unmarked) [Example 41],133 nM
12,CC(C)c1ccc([C@](O)(c2cncc(C#CC3(O)CCCc4cccnc43)c2)C2(C)CN(C)C2)cc1 (some centres unmarked) [Example 42],41.5 nM
13,CC(C)c1ccc([C@](O)(c2cncc(C#CC3(O)CCc4cccnc43)c2)C2(C)CN(C)C2)cc1 (some centres unmarked) [Example 43],55.9 nM
14,CCC(O)(C#Cc1cncc([C@@](O)(c2ccc(C(C)C)cc2)C2(C)CN(C)C2)c1)c1ccccn1 (some centres unmarked) [Example 44],63.3 nM
15,CCC(O)(C#Cc1cncc([C@@](O)(c2ccc(C(C)C)cc2)C2(C)CN(C)C2)c1)c1cccc(OC)n1 (some centres unmarked) [Example 45],32.8 nM
16,CC(C)C(=O)N1CC(O)(C#Cc2cncc([C@@](O)(c3ccc(C(C)C)cc3)C3(C)CN(C)C3)c2)C1 [Example 46],145 nM
17,"CC(C)c1ccc([C@](O)(c2cncc(C#Cc3cc4ccccc4[nH]3)c2)C2(C)CN(C)C2)cc1 [Example 47, (R)-(1,3-Dimethyl-azetidin-3-yl)-[5-(1H-indol-2-ylethynyl)-pyridin-3-yl]-(4-isopropyl-phenyl)-methanol]",35 nM
18,"COCCCc1cncc(C(O)(c2ccc(C(C)C)cc2)C2(C)CN(C)C2)c1 (centres unmarked) [Example 48, (1,3-Dimethyl-azetidin-3-yl)-(4-isopropyl-phenyl)-[5-(3-methoxy-propyl)-pyridin-3-yl]-methanol]",100 nM
19,CC(C)c1ccc([C@](O)(c2cncc(CCCO)c2)C2(C)CN(C)C2)cc1 [Example 49],219 nM

row,SMILES,IC50
1,CC(C)c1ccc([C@](O)(c2cncc(CCC(C)(C)O)c2)C2(C)CN(C)C2)cc1 [Example 50],90.2 nM
2,CC(C)c1ccc([C@](O)(c2cncc(CC[C@H](C)O)c2)C2(C)CN(C)C2)cc1 [Example 51],134 nM
3,CC(C)c1ccc([C@](O)(c2cncc(CC[C@@H](C)O)c2)C2(C)CN(C)C2)cc1 [Example 52],200 nM
4,CC(C)c1ccc([C@](O)(c2cncc(CCC3(O)CCCC3)c2)C2(C)CN(C)C2)cc1 [Example 53],46.3 nM
5,CC(C)c1ccc([C@](O)(c2cncc(CCC3(O)CC3)c2)C2(C)CN(C)C2)cc1 [Example 54],66.9 nM
6,CC(C)c1ccc([C@](O)(c2cncc(CCC3(O)CN(C(=O)OC(C)(C)C)C3)c2)C2(C)CN(C)C2)cc1 [Example 55],65.8 nM
7,CC(C)c1ccc([C@](O)(c2cncc(CCC3(O)CCC3)c2)C2(C)CN(C)C2)cc1 [Example 56],61 nM
8,CC(C)c1ccc([C@](O)(c2cncc(CCCCO)c2)C2(C)CN(C)C2)cc1 [Example 57],349 nM
9,CC(C)c1ccc([C@](O)(c2cncc(CCc3cnn(C)c3)c2)C2(C)CN(C)C2)cc1 [Example 58],440 nM
10,CC(C)c1ccc([C@](O)(c2cncc(CCC(O)c3ccccc3)c2)C2(C)CN(C)C2)cc1 (some centres unmarked) [Example 59],7.1 nM
11,CC(C)c1ccc(C(O)(c2cncc(CCC(C)(O)c3ccccc3)c2)C2(C)CN(C)C2)cc1 (centres unmarked) [Example 60],9.06 nM
12,CC(C)c1ccc([C@](O)(c2cncc(CCC(O)C(C)C)c2)C2(C)CN(C)C2)cc1 (some centres unmarked) [Example 61],19.4 nM
13,CC(C)c1ccc([C@](O)(c2cncc(CCC3(O)CCOCC3)c2)C2(C)CN(C)C2)cc1 [Example 62],242 nM
14,CC(C)c1ccc([C@](O)(c2cncc(CCC(O)C3CCOCC3)c2)C2(C)CN(C)C2)cc1 (some centres unmarked) [Example 63],601 nM
15,Cc1nn(C)cc1C(O)CCc1cncc([C@@](O)(c2ccc(C(C)C)cc2)C2(C)CN(C)C2)c1 (some centres unmarked) [Example 64],441 nM
16,CC(C)c1ccc([C@](O)(c2cncc(CCC3CCOCC3)c2)C2(C)CN(C)C2)cc1 [Example 65],44.7 nM
17,Cc1nc(C(O)CCc2cncc([C@@](O)(c3ccc(C(C)C)cc3)C3(C)CN(C)C3)c2)cs1 (some centres unmarked) [Example 66],223 nM
18,CC(C)c1ccc([C@](O)(c2cncc(CCC(C)(O)c3cccc(F)c3)c2)C2(C)CN(C)C2)cc1 (some centres unmarked) [Example 67],11.8 nM
